Key:
Details in all cases: mouse, in vivo
[1] = tested on: Ldlr^−/− mice
Experimental: (§1) (a) Experimental design: 8 weeks old mice C57 or Ldlr^−/− (n=4-6 per each condition) are injected with Bortezomib and/or Marl and/or fasted for 24 hours, before receiving LV (dose 2.75×10^10 TU/Kg) i.v. Then, hFIX is monitored in treated mice longitudinally. (b, c) Mean with SEM of hFIX antigen measured in the plasma of LV treated mice over time (4 and 26 wk post LV timepoint). Two-way ANOVA with Dunnett's multiple comparisons test vs LV control, performed for each of the two strains used.
(§2) According to the groups, mice were either faster for 24 hours, injected with Marl 3 hours before LV and/or injected with Bortezomib 1-hour before LV. Circulating hFIX amounts were then monitored longitudinally (FIG. 11A).
Wild-type C57Bl/6 adults, Ldlr/adults, Alb-F8*R593C adults, Ldlr^−/− 2-week old mice and C57 BI/6 2-week old were used in these studies. Founder B6; 129S-7-Ldlrtm1 Her/J mice (referred to as Ldlr^−/−) were obtained from the Jackson Laboratories (stock #:002207). […] C57BL/6 mice were purchased from Jackson laboratories (stock #000664). […] LV was administered in adult mice, males and females (7-10-weeks of age), through either tail vein or retro-orbital plexus (250-500 μL/mouse). LV was administered in juvenile mice (2 weeks of age) through retro-orbital plexus (100-200 μL/mouse). Mice were bled from the retro-orbital plexus through capillary tubes. Blood was collected in 0.38% sodium citrate buffer, pH 7.4. […] For fasting experiments, mice were starved for 24-hours and then treated or not with LV. For experiments with Bortezomib (Velcade), the drug (1 mg/kg) was administered, once diluted in saline, i.v. 1 hour before LV administration. […]
(§3) hFIX ELISA assay was used to assess hFIX concentration in mouse plasma samples (Affinity Biologicals, FIX-EIA), in accordance with the manufacturer's protocol. Absorbance of each sample was determined spectrophotometrically, using a Multiskan GO microplate reader (Thermo Fisher Scientific) and normalized to antigen standard curves.

[2] = tested on: C57 mice
Experimental: as §1, §2
Wild-type C57Bl/6 adults, Ldlr/adults, Alb-F8*R593C adults, Ldlr^−/− 2-week old mice and C57 BI/6 2-week old were used in these studies. Founder B6; 129S-7-Ldlrtm1 Her/J mice (referred to as Ldlr^−/−) were obtained from the Jackson Laboratories (stock #:002207). […] C57BL/6 mice were purchased from Jackson laboratories (stock #000664). […]
as §3

[3] = tested on: Adult mice

CC(C)C[C@H](NC(=O)[C@H](Cc1ccccc1)NC(=O)c1cnccn1)B(O)O [Bortezomib]
overall increase in transgene output, combination of fasting and Bortezomib [1]: 4.5-6 fold
transgene output when combined with fasting, compared to use as single treatments [1]: milder increase in Ldlr^−/− than C57
transgene output, single treatment [1]: give an advantage
transgene output in combination with fasting, versus LV controls [2]: 11-12 fold
transgene output compared to LV only, single treatment ([2]; iv): enhanced transgene output
VCN in KC [3]: reduced VCN
VCN in LSEC [3]: increase
VCN in hepatocytes [3]: trend of increase
VCN in pDC [3]: reduced VCN
hFIX circulating amounts versus controls ([3]; iv): higher than controls
